This assay has as its target T1, recombinant human GR (Homo sapiens, UniProt P04150).
T1 construct: purchased Panvera/Invitrogen P2812 (kit P2893)
T1 sequence (P04150 1-777): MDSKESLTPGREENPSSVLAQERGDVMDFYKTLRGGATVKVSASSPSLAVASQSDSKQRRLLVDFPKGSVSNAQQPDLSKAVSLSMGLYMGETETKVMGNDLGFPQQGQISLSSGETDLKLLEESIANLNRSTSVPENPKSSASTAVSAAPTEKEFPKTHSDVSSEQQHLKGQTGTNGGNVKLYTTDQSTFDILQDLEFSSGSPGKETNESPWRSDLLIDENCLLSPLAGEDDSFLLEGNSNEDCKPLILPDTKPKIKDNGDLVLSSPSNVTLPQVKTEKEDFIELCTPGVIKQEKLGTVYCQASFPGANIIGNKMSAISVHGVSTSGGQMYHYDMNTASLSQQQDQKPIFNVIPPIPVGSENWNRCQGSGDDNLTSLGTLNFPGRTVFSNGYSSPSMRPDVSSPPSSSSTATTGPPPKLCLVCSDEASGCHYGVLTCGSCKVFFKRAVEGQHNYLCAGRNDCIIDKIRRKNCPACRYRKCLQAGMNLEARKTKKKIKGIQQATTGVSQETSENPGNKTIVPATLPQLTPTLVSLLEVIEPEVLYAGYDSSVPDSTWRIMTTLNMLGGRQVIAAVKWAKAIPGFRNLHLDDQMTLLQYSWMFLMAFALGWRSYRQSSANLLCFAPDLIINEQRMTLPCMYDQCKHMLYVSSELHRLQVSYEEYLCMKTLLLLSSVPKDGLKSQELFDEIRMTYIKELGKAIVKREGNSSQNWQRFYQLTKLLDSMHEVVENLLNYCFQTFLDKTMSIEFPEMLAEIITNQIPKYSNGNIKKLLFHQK
The experiment in a line: Human Glucocorticoid Receptor (GR) Assay (fluorescence polarization, Panvera/Invitrogen kit). The settings on record: fluorescence polarization; GS Red tracer; 2 hours at room temperature; 100% control 10 μM Dexamethasone; read-out: Inhibition of GR binding, IC50. It is filed as binding. Put shortly: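 Fluorescence polarization competition with recombinant GR and GS Red fluorescent ligand plus stabilizing peptide and DTT in potassium phosphate/sodium molybdate/EDTA buffer with DMSO. Incubated 2 hours at room temperature in the dark; 0% control DMSO, 100% control 10 μM dexamethasone.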
(Polarisation of emitted light reports the rotation of a fluorescent probe.)

SMILES strings stand for the structures.

Turning to `C#CCSC(=O)[C@@]1(OC(=O)CC)CC[C@H]2[C@@H]3CCC4=Cc5c(cnn5-c5ccc(F)cc5)C[C@]4(C)[C@H]3[C@@H](O)C[C@@]21C` [Example 20, (1R,3aS,3bS,10aR,10bS,11S,12aS)-7-(4-fluorophenyl)-11-hydroxy-10a,12a-dimethyl-1-[(prop-2-yn-1-ylthio)carbonyl]-1,2,3,3a,3b,4,5,7,10,10a,10b,11,12,12a-tetradecaphydrocyclopenta[5,6]naphtho[1,2-f]indazol-1-yl propanoate], the IC50 turned out to be 7.7 nM.
For `C[C@]12Cc3cnn(-c4ccc(F)c(CO)c4)c3C=C1CC[C@@H]1[C@@H]2[C@@H](O)C[C@@]2(C)[C@H]1CC[C@]2(OC(=O)C1CC1)C(=O)SCF` [Example 139, (1R,3aS,3bS,10aR,10bS,11S,12aS)-7-[4-Fluoro-3-(hydroxymethyl)phenyl]-1-{[(fluoromethyl)thio]carbonyl}-11-hydroxy-10a,12a-dimethyl-1,2,3,3a,3b, 4,5,7,10,10a,10b,11,12,12a-tetradecahydrocyclopenta[5,6]naphtho[1,2-f]indazol-1-yl cyclopropanecarboxylate], the IC50 turned out to be 3.5 nM.
The same measure for `CC(C)C(=O)O[C@]1(C(=O)SCC#N)CC[C@H]2[C@@H]3CCC4=Cc5c(cnn5-c5ccc(F)cc5)C[C@]4(C)[C@H]3[C@@H](O)C[C@@]21C` [Example 111, (1R,3aS,3bS,10aR,10bS,11S,12aS)-1-{[(Cyanomethyl)sulfanyl]carbonyl}-7-(4-fluorophenyl)-11-hydroxy-10a,12a-dimethyl-1,2,3,3a,3b,4,5,7,10,10a,10b,11,12,12a-tetradecahydrocyclopenta[5,6]naphtho[1,2-f]indazol-1-yl 2-methylpropanoate]: 6.3 nM.
The same measure for `CC(C)OC(=O)O[C@]1(C(=O)SCC#N)CC[C@H]2[C@@H]3CCC4=Cc5c(cnn5-c5ccc(F)cc5)C[C@]4(C)[C@H]3[C@@H](O)C[C@@]21C` [Example 68, S-(Cyanomethyl)(1R,3aS,3bS,10aR,10bS,11S,12aS)-7-(4-fluorophenyl)-11-hydroxy-10a,12a-dimethyl-1-{[(1-methylethoxy)carbonyl]oxy}-1,2,3,3a,3b,4,5,7,10,10a,10b,11,12,12a-tetradecahydrocyclopenta[5,6]naphtho[1,2-f]indazole-1-carbothioate]: 12 nM; for `CCC(=O)O[C@]1(C(=O)SCC(=O)OC)CC[C@H]2[C@@H]3CCC4=Cc5c(cnn5-c5ccc(F)cc5)C[C@]4(C)[C@H]3[C@@H](O)C[C@@]21C` [Example 11, (1R,3aS,3bS,10aR,10bS,11S,12aS)-7-(4-Fluorophenyl)-11-hydroxy-1-{[(2-methoxy-2-oxoethyl)thio]carbonyl}-10a,12a-dimethyl-1,2,3,3a,3b,4,5,7,10,10a,10b,11,12,12a-tetradecahydrocyclopenta[5,6]naphtho[1,2-f]indazol-1-yl propanoate]: 3.8 nM.
Turning to `CSCC(=O)[C@@]1(OC(C)=O)CC[C@H]2[C@@H]3CCC4=Cc5c(cnn5-c5ccc(F)cc5)C[C@]4(C)[C@H]3[C@@H](O)C[C@@]21C` [Example 124, (1R,3aS,3bS,10aR,10bS,11S,12aS)-7-(4-Fluorophenyl)-11-hydroxy-10a,12a-dimethyl-1-[(methylsulfanyl)acetyl]-1,2,3,3a,3b,4,5,7,10,10a,10b,11,12,12a-tetradecahydrocyclopenta[5,6]naphtho[1,2-f]indazol-1-yl acetate], the IC50 turned out to be 2.4 nM.
For `C[C@]12Cc3cnn(-c4ccc(F)nc4)c3C=C1CC[C@H]1[C@@H]3CC[C@](OC(=O)c4ccco4)(C(=O)SCC#N)[C@@]3(C)C[C@H](O)[C@@]12F` [Example 211, (1R,3aS,3bS,10aS,10bR,11S,12aS)-1-{[(Cyanomethyl)sulfanyl]carbonyl}-10b-fluoro-7-(6-fluoropyridin-3-yl)-11-hydroxy-10a,12a-dimethyl-1,2,3,3a,3b,4,5,7,10,10a,10b,11,12,12a-tetradecahydrocyclopenta[5,6]naphtho[1,2-f]indazol-1-yl furan-2-carboxylate], the IC50 amounted to 2.2 nM.
Regarding `C[C@]12Cc3cnn(-c4ccc(F)cc4)c3C=C1CC[C@@H]1[C@@H]2[C@@H](O)C[C@@]2(C)[C@H]1CC[C@]2(OC(=O)c1ccco1)C(=O)SCF` [Example 8, (1R,3aS,3bS,10aR,10bS,11S,12aS)-1-{[(Fluoromethyl)thio]carbonyl}-7-(4-fluorophenyl)-11-hydroxy-10a,12a-dimethyl-1,2,3,3a,3b,4,5,7,10,10a,10b,11,12,12a-tetradecahydrocyclopenta[5,6]naphtho[1,2-f]indazol-1-yl 2-furoate], the IC50 was 4.7 nM.
Regarding `Cn1cccc1C(=O)O[C@]1(C(=O)SCF)CC[C@H]2[C@@H]3CCC4=Cc5c(cnn5-c5ccc(F)cc5)C[C@]4(C)[C@H]3[C@@H](O)C[C@@]21C` [Example 177, (1R,3aS,3bS,10aR,10bS,11S,12aS)-1-{[(Fluoromethyl)thio]carbonyl}-7-(4-fluorophenyl)-11-hydroxy-10a,12a-dimethyl-1,2,3,3a,3b,4,5,7,10,10a,10b,11,12,12a-tetradecahydrocyclopenta[5,6]naphtho[1,2-f]indazol-1-yl 1-methyl-1H-pyrrole-2-carboxylate], the IC50 amounted to 7.5 nM.
As to `Cn1cccc1C(=O)O[C@]1(C(=O)SCC#N)CC[C@H]2[C@@H]3CCC4=Cc5c(cnn5-c5ccc(F)cc5)C[C@]4(C)[C@H]3[C@@H](O)C[C@@]21C` [Example 176, (1R,3aS,3bS,10aR,10bS,11S,12aS)-1-{[(Cyanomethyl)thio]carbonyl}-7-(4-fluorophenyl)-11-hydroxy-10a,12a-dimethyl-1,2,3,3a,3b,4,5,7,10,10a,10b,11,12,12a-tetradecahydrocyclopenta[5,6]naphtho[1,2-f]indazol-1-yl 1-methyl-1H-pyrrole-2-carboxylate], the IC50 was found to be 11 nM.
As to `C[C@]12Cc3cnn(-c4ccc(F)cc4)c3C=C1CC[C@@H]1[C@@H]2[C@@H](O)C[C@@]2(C)[C@H]1CC[C@]2(OC(=O)C1CCCCO1)C(=O)SCC#N` (single isomer, unassigned) [Example 136], the IC50 was determined as 4.5 nM.
As for `COCC(=O)O[C@]1(C(=O)SCC(C)=O)CC[C@H]2[C@@H]3CCC4=Cc5c(cnn5-c5ccc(F)cc5)C[C@]4(C)[C@H]3[C@@H](O)C[C@@]21C` [Example 33, (1R,3aS,3bS,10aR,10bS,11S,12aS)-7-(4-Fluorophenyl)-11-hydroxy-10a,12a-dimethyl-1-{[(2-oxopropyl)thio]carbonyl}-1,2,3,3a,3b,4,5,7,10a,10 b,11,12,12a-tetradecahydrocyclopenta[5,6]naphtho[1,2-f]indazol-1-yl methoxyacetate], the IC50 is 2.7 nM.
In the case of `C[C@]12Cc3cnn(-c4ccc(F)nc4)c3C=C1CC[C@@H]1[C@@H]2[C@@H](O)C[C@@]2(C)[C@H]1CC[C@]2(O)C(=O)SCC#N` [Example 164, S-(Cyanomethyl)(1R,3aS,3bS,10aR,10bS,11S,12aS)-7-(6-fluoropyridin-3-yl)-1,11-dihydroxy-10a,12a-dimethyl-1,2,3,3a,3b,4,5,7,10,10a,10b,11,12,12a-tetradecahydrocyclopenta[5,6]naphtho[1,2-f]indazole-1-carbothioate], the IC50 was determined as 1.4 nM.
The value for `CCC(=O)O[C@]1(C(=O)SC(C)C#N)CC[C@H]2[C@@H]3CCC4=Cc5c(cnn5-c5ccc(F)cc5)C[C@]4(C)[C@H]3[C@@H](O)C[C@@]21C` (stereo partly drawn) [Example 12, (1R,3aS,3bS,10aR,10bS,11S,12aS)-1-{[(1-Cyanoethyl)thio]carbonyl}-7-(4-fluoro-phenyl)-11-hydroxy-10a,12a-dimethyl-1,2,3,3a,3b,4,5,7,10,10a,10b,11,12,12a-tetradecahydrocyclopenta[5,6]naphtho[1,2-f]indazol-1-yl propanoate] was 5.8 nM; that for `C[C@]12Cc3cnn(-c4ccc(F)nc4)c3C=C1CC[C@@H]1[C@@H]2[C@@H](O)C[C@@]2(C)[C@H]1CC[C@]2(OC(=O)C1CC1)C(=O)SCC#N` [Example 152, (1R,3aS,3bS,10aR,10bS,11S,12aS)-1-{[(Cyanomethyl)sulfanyl]carbonyl}-7-(6-fluoropyridin-3-yl)-11-hydroxy-10a,12a-dimethyl-1,2,3,3a,3b,4,5,7,10,10a,10b,11,12,12a-tetradecahydrocyclopenta[5,6]naphtho[1,2-f]indazol-1-yl cyclopropanecarboxylate] was 7 nM.

Broadly, the IC50 is the midpoint of a concentration-inhibition curve.

Source of the values: patent publication US8163724B2, “Glucocorticosteroids, processes for their preparation, pharmaceutical compositions containing them and their use in therapy” (AstraZeneca AB, priority 2007, dated 2012).
